According to publication PMC5601486, “Identification of 4-phenylquinolin-2(1H)-one as a specific allosteric inhibitor of Akt” (Scientific Reports, 2017):

Assays:
[1] = system: WNK3; test: KINOMEscan; conditions: 50000 nM
Procedure: KINOMEscan™ selectivity screen
(§1) The assay was perfor med at DiscoveRx Corporation according the methods published previously5. Briefly, Kinase-tagged T7 phage strains were grown in parallel in an E. coli host derived from the BL21 strain. E. coli were grown to log-phase and infected with T7 phage from a frozen stock and incubated with shaking at 32°C until lysis (90-150 minutes). The kinases were produced in HEK-293 cells and subsequently tagged with DNA for qPCR detection. Streptavidin-coated magnetic beads were treated with biotinylated small molecule ligands to generate affinity resins for kinase
(§2) inhibitor or DMSO control was performed in polypropylene 384-well plates for 1 hr at room temperature. After wash with PBS buffer containing 0.05% Tween 20, the beads were incubated in elution buffer (PBS containing 0.05 % Tween 20 and 0.5 μM non-biotinylated affinity ligand) for 30 minutes at room temperature. The kinase concentration in the eluates was measured by qPCR.

[2] = system: EPHB4; test: KINOMEscan; conditions: 50000 nM
Procedure: KINOMEscan™ selectivity screen
(§3) Briefly, Kinase-tagged T7 phage strains were grown in parallel in an E. coli host derived from the BL21 strain. E. coli were grown to log-phase and infected with T7 phage from a frozen stock and incubated with shaking at 32°C until lysis (90-150 minutes). The kinases were produced in HEK-293 cells and subsequently tagged with DNA for qPCR detection. Streptavidin-coated magnetic beads were treated with biotinylated small molecule ligands to generate affinity resins for kinase
as §2

[3] = system: ADCK3; test: KINOMEscan; conditions: 50000 nM
Procedure: KINOMEscan™ selectivity screen
as §1, §2

[4] = system: CDK7; test: KINOMEscan; conditions: 50000 nM
Procedure: KINOMEscan™ selectivity screen
as §1, §2

[5] = system: CSNK2A2; test: KINOMEscan; conditions: 50000 nM
Procedure: KINOMEscan™ selectivity screen
as §3, §2

[6] = system: MYO3A; test: KINOMEscan; conditions: 50000 nM
Procedure: KINOMEscan™ selectivity screen
as §1, §2

[7] = system: RSK2(Kin.Dom.2-C-terminal); test: KINOMEscan; conditions: 50000 nM
Procedure: KINOMEscan™ selectivity screen
as §1, §2

[8] = system: ERK1/2; test: Western blot of ERK1/2 phosphorylation; type: cell-based, Mouse; conditions: Neuro 2A cells
Procedure: Neuro 2A cells were seeded in 12-well plates in DMEM containing 5% FBS for 24 hr.
After overnight serum starvation (in 0% FBS DMEM), cells were incubated for 30 min at 37 °C with G7 or LY294002 or Torin 1 (Sigma Aldrich) at various concentrations, or DMSO control. IGF-1 was added to each well at a final concentration of 100 ng/mL. After 30-min incubation cells were washed with cold PBS and lysed with 50 µL lysis buffer containing 1% Triton X-100 and protease/phosphatase inhibitors (Cell Signaling Technology) or RIPA buffer (Santa Cruz Biotech). Samples were electrophoresed in 4–12% Bis-Tris gels (Life Technologies) at 150 V using MOPS SDS running buffer. Proteins were transferred electrophoretically to a PVDF or nitrocellulose membrane. For detection of cleaved […]
caspase 3 a Trans-Blot Turbo Transfer System (Bio-Rad, 25 V for 25 min) with PVDF membrane were used. […]
anti- GAPDH (14C10) antibody (#2118) (all antibodies were from Cell Signaling Technology unless indicated, 1:1000 dilution was used) at 4°C overnight, washed three times with TBS-T, then incubated with peroxidase-conjugated secondary antibody (Sigma-Aldrich) for 1 hr at room temperature. […] Band intensity was quantitated using Kodak 1D imaging analysis software. […]

[9] = system: DYRK1A; test: KINOMEscan; conditions: 50000 nM
Procedure: KINOMEscan™ selectivity screen
as §1, §2

[10] = system: RIPK5; test: KINOMEscan; conditions: 50000 nM
Procedure: KINOMEscan™ selectivity screen
as §1, §2

[11] = system: EGFR(S752-I759del); test: KINOMEscan; conditions: 50000 nM
Procedure: KINOMEscan™ selectivity screen
as §1, §2

[12] = system: FLT3(N841I); test: KINOMEscan; conditions: 50000 nM
Procedure: KINOMEscan™ selectivity screen
as §3, §2

[13] = system: MYLK2; test: KINOMEscan; conditions: 50000 nM
Procedure: KINOMEscan™ selectivity screen
as §1, §2

[14] = system: PIK3CA(M1043I); test: KINOMEscan; conditions: 50000 nM
Procedure: KINOMEscan™ selectivity screen
as §1, §2

[15] = system: TRKB; test: KINOMEscan; conditions: 50000 nM
Procedure: KINOMEscan™ selectivity screen
(§4) The assay was perfor med at DiscoveRx Corporation according the methods published previously5. […] The kinases were produced in HEK-293 cells and subsequently tagged with DNA for qPCR detection. Streptavidin-coated magnetic beads were treated with biotinylated small molecule ligands to generate affinity resins for kinase
as §2

[16] = system: ITK; test: KINOMEscan; conditions: 50000 nM
Procedure: KINOMEscan™ selectivity screen
as §3, §2

[17] = system: ERBB3; test: KINOMEscan; conditions: 50000 nM
Procedure: KINOMEscan™ selectivity screen
as §1, §2

[18] = system: ERBB4; test: KINOMEscan; conditions: 50000 nM
Procedure: KINOMEscan™ selectivity screen
as §1, §2

[19] = system: T1, PRP4; test: KINOMEscan; type: binding, human; conditions: 50000 nM
T1 construct: purchased DiscoveRx KINOMEscan

[20] = system: PAK4; test: KINOMEscan; conditions: 50000 nM
Procedure: as §3, §2

[21] = system: MAP3K1; test: KINOMEscan; conditions: 50000 nM
Procedure: KINOMEscan™ selectivity screen
as §3, §2

[22] = system: MARK3; test: KINOMEscan; conditions: 50000 nM
Procedure: KINOMEscan™ selectivity screen
as §1, §2

[23] = system: p38-delta; test: KINOMEscan; conditions: 50000 nM
Procedure: KINOMEscan™ selectivity screen
as §3, §2

[24] = system: ABL1(F317I)-phosphorylated; test: KINOMEscan; conditions: 50000 nM
Procedure: KINOMEscan™ selectivity screen
as §1, §2

[25] = system: NIK; test: KINOMEscan; conditions: 50000 nM
Procedure: KINOMEscan™ selectivity screen
Briefly, Kinase-tagged T7 phage strains were grown in parallel in an E. coli host derived from the BL21 strain. E. coli were grown to log-phase and infected with T7 phage from a frozen stock and incubated with shaking at 32°C until lysis (90-150 minutes). The kinases were produced in HEK-293 cells and subsequently tagged with DNA for qPCR detection.
After wash with PBS buffer containing 0.05% Tween 20, the beads were incubated in elution buffer (PBS containing 0.05 % Tween 20 and 0.5 μM non-biotinylated affinity ligand) for 30 minutes at room temperature. The kinase concentration in the eluates was measured by qPCR.

[26] = system: T2, PFPK5(P.falciparum); test: KINOMEscan; type: binding; conditions: 50000 nM
T2 construct: purchased DiscoveRx KINOMEscan

[27] = system: JNK3; test: KINOMEscan; conditions: 50000 nM
Procedure: KINOMEscan™ selectivity screen
as §1, §2

[28] = system: MEK1; test: KINOMEscan; conditions: 50000 nM
Procedure: KINOMEscan™ selectivity screen
as §3, §2

[29] = system: BRAF(V600E); test: KINOMEscan; conditions: 50000 nM
Procedure: KINOMEscan™ selectivity screen
as §1, §2

[30] = system: MEK6; test: KINOMEscan; conditions: 50000 nM
Procedure: KINOMEscan™ selectivity screen
as §1, §2

[31] = system: MET; test: KINOMEscan; conditions: 50000 nM
Procedure: KINOMEscan™ selectivity screen
as §1, §2

[32] = system: RIOK1; test: KINOMEscan; conditions: 50000 nM
Procedure: KINOMEscan™ selectivity screen
as §1, §2

[33] = system: GAK; test: KINOMEscan; conditions: 50000 nM
Procedure: KINOMEscan™ selectivity screen
as §4, §2

[34] = system: EPHA1; test: KINOMEscan; conditions: 50000 nM
Procedure: KINOMEscan™ selectivity screen
as §1, §2

[35] = system: PIP5K1C; test: KINOMEscan; conditions: 50000 nM
Procedure: KINOMEscan™ selectivity screen
as §1, §2

[36] = system: T3, PKNB(M.tuberculosis); test: KINOMEscan; type: binding; conditions: 50000 nM
T3 construct: purchased DiscoveRx KINOMEscan

[37] = system: TEC; test: KINOMEscan; conditions: 50000 nM
Procedure: KINOMEscan™ selectivity screen
as §3, §2

[38] = system: RSK3(Kin.Dom.2-C-terminal); test: KINOMEscan; conditions: 50000 nM
Procedure: KINOMEscan™ selectivity screen
as §1, §2

[39] = system: FAK; test: KINOMEscan; conditions: 50000 nM
Procedure: KINOMEscan™ selectivity screen
as §1, §2

Oc1cc(-c2ccccc2)c2ccccc2n1 [G7, 4-phenylquinolin-2(1H)-one]
Percent Control [1]: 98%
Percent Control [2]: 92%
Percent Control [3]: 92%
Percent Control [4]: 84%
Percent Control [5]: 70%
Percent Control [6]: 85%
Percent Control [7]: 100%
phosphorylation of ERK1/2 [8]: neither inhibited
Percent Control [9]: 54%
Percent Control [10]: 73%
Percent Control [11]: 85%
Percent Control [12]: 30%
Percent Control [13]: 100%
Percent Control [14]: 100%
Percent Control [15]: 56%
Percent Control [16]: 60%
Percent Control [17]: 88%
Percent Control [18]: 86%
Percent Control [19]: 79%
Percent Control [20]: 84%
Percent Control [21]: 71%
Percent Control [22]: 87%
Percent Control [23]: 100%
Percent Control [24]: 72%
Percent Control [25]: 93%
Percent Control [26]: 85%
Percent Control [27]: 86%
Percent Control [28]: 69%
Percent Control [29]: 71%
Percent Control [30]: 72%
Percent Control [31]: 73%
Percent Control [32]: 95%
Percent Control [33]: 56%
Percent Control [34]: 89%
Percent Control [35]: 44%
Percent Control [36]: 43%
Percent Control [37]: 71%
Percent Control [38]: 59%
Percent Control [39]: 93%
